Reference: US20030229114A1, “Pyrroloquinoline quinone drugs as a neuroprotectant and methods of use thereof” (priority 2002, published 2003)
“And” between values parts separate entries of the source, which are not always exact repeats. Equal values may be shown once. “Also recorded” adds a separate entry of the source.

How the values were obtained:
[1] = test system: cultured rat forebrain neurons; assay: Measurement of intracellular cGMP in neuronal cultures (enzyme-linked immunoassay); type: cell-based
Description: (§1) Medium was not subsequently changed.
Intracellular cGMP was assayed by enzyme-linked immunoassay (Amersham). Cultures were washed three times, and then medium was replaced by EBSS with or without PQQ or SOD. The non-specific phosphodiesterase inhibitor, 3-isobutyl-1-methylxanthine (IBMX) at 100 μM was present in all conditions. DEA/NO, SIN-1 and peroxynitrite were added for 5 min, and then the medium was replaced with 200 μl of releasing reagent provided in the kit. The plates were agitated for 20 min at room temperature, and 20 μl of acetylation reagent was added. After 5 min, 50 μl samples were taken for assay.

[2] = test system: cultured rat forebrain neurons; assay: Assay of intracellular ATP in neuronal cultures (firefly luciferase); type: cell-based
Description: as §1
Experiments were carried out exclusively in EBSS. […] PQQ was directly dissolved in EBSS.
The Bioluminescent Somatic Cell Assay kit from Sigma (catalog No. FL-ASC) was used for assay of ATP as previously described (Rosenberg et al., 2000). At selected time points after addition of drug or vehicle, medium was removed, and then replaced with 200 μl of cell lysis agent. After brief agitation, the medium was transferred to microcentrifuge tubes that contained 200 μl of water. The tubes were placed on wet ice until assay. ATP assay mix was used at 25-fold dilution, and 100 μl of the extract was assayed.

[3] = test system: cultured rat forebrain neurons; assay: Survival assay of neuronal cultures (Alamar Blue reduction, 24 hr); conditions: for Synergism with NMDA in producing neurotoxicity: DEA/NO 100 μM, DPT/NO 300 μM; for Cell (neuronal) survival: ONOO− 100 μM alone, without PQQ; for Effect on neurotoxicity induced by NMDA plus DETA/NO: PBN at 10 mM, TEMPO at 1 mM applied 1 hr before
Description: Neuronal cultures were prepared from embryonic day 16 Sprague Dawley rat fetuses using methods similar to those previously described (Dichter, 1978) but modified to produce cultures that contained <1% astrocytes (Rosenberg and Aizenman, 1989; Rosenberg, 1991; Rosenberg et al., 1992; Wang et al., 1998). Cultures were initially plated on poly-L-lysine-coated 24-well plastic plates (Costar, Cambridge, Mass.) using an 80:10:10 (v/v) mixture ofDMEM (Life Technologies 11960-010), Ham's F-12 (Sigma, N-4888), heat-inactivated iron-supplemented calf serum (Hyclone A2151), containing 2 mM glutamine, 25 mM HEPES, 24 U/ml penicillin, and 24 μg/ml streptomycin and maintained in a 5% CO2 (balance air) incubator at 36° C. Cell proliferation was inhibited by exposure to 5 μM cytosine arabinoside at 24 hr in vitro for 72 hr. On the fourth day of culture, the medium was completely removed and replaced with 90% MEM, 10% Nuserum IV (Collaborative Research), 2 mM glutamine, 5 mM HEPES, containing 50 units/ml superoxide dismutase (Boehringer Mannheim, Indianapolis, Ind.), 20 units/ml catalase (Sigma CV-40), total glucose 11 mM, and total sodium bicarbonate 9.3 mM, plus 2% B27 supplement (Life Technologies 17504-036). Medium was not subsequently changed. To prevent evaporation of water, culture dishes were kept in wet dishes containing filter paper that was always kept wet.
In all experiments, 24-well plates were first washed three times in Hank's balanced salt solution (HBSS) containing 0.1% bovine serum albumin (BSA), and then they were placed in Earle's balanced salt solution (EBSS, which is composed of 116 mM NaCl, 5.4 mM KCl, 1.8 mM CaCl2, 0.8 mM MgSO4, 26 mM NaHCO3, 1 mM NaH2PO4 and 5.5 mM D-glucose). Experiments were carried out exclusively in EBSS. […] PQQ was directly dissolved in EBSS.
Survival of cells was determined after 24 hr exposure to the test compounds by assessing the ability of cultures to reduce Alamar Blue (Trek Diagnostic Systems, Inc., Westlake, Ohio) as an index of viability (McGahon et al., 1995). Details of this procedure have been provided elsewhere (Back et al., 1998, 1999). In brief, the test medium was removed after 24 hr, and then replaced with EBSS plus a 1:100 dilution of Alamar Blue. After 2 hr exposure, the medium was diluted 50-fold with water, and the fluorescence intensity was determined in a Hitachi fluorescence spectrophotometer using an excitation wavelength of 530 nm and an emission wavelength of 590 nm. The photomultiplier voltage was set at 700 V. In some experiments, the cell viability determined by Alamar Blue was compared to that determined by the assay of lactate dehydrogenase (LDH) release (Koh and Choi, 1987).

[4] = test system: G93A-SOD transgenic mice; conditions: cited from earlier work
[5] = test system: Oligodendrocytes; assay: In vitro white matter injury assay: SIN-1 toxicity in oligodendrocytes; type: cell-based; conditions: 2 hr exposure in EBSS; examined at 24 hr
Description: Oligodendrocytes were exposed to various concentrations of SIN-1 (0, 0.25, 0.5, 1 and 2 mM) in EBSS for 2 hr with or without PQQ (100 μM), then washed with HBSS containing 0.1% BSA for 2 times. Oligodendrocytes were then returned to the culture medium. The neurotoxicity was examined at 24 hr.
To illustrate the neuroprotective benefits of the invention, PQQ was used to show oligodendrocytes protection from cell toxicity in an in vitro white matter injury assay. Oligodendrocytes were exposed to various concentrations of SIN-1 (0, 0.25, 0.5, 1 and 2 mM) in EBSS for 2 hr with or without PQQ (100 μM), then washed with HBSS containing 0.1% BSA for 2 times. Oligodendrocytes were then returned to the culture medium. The neurotoxicity was examined at 24 hr.

[6] = test system: BSA; assay: Western blot of BSA tyrosine nitration, cell-free (anti-nitrotyrosine antibody); type: biochemical, bovine; conditions: SIN-1 1 mM alone
Description: BSA (0.5 mg/ml) in EBSS with or without PQQ was exposed to SIN-1 or peroxynitrite for 1 hr, and then 4× sample buffer (40% glycerol, 20% β-mercaptoethanol, 0.004% bromophenol blue, 6.4% SDS, 25% 1M Tris-HCl, pH 6.8) was added. After the samples were heated for 5 min, 2 μg protein per lane was subjected to SDS-PAGE analysis, followed by transfer to PVDF membrane (NEN Life Science, Boston, Mass.) and reacted with a mouse anti-nitrotyrosine monoclonal antibody (Upstate Biotechnology). Proteins were visualized with horseradish peroxidase-conjugated sheep anti-mouse immunoglobulin G (IgG) followed by detection with enhanced chemiluminescence.

[7] = five minutes, agent alone: SIN-1 100 μM, ONOO− 100 μM or DEA/NO 10 μM, IBMX 100 μM
[8] = one hour after nitric oxide donor 1 mM alone
[9] = nitric oxide donor 1 mM alone (FIG. 6B)
[10] = nitric oxide donor 1 mM without MK-801 (FIG. 5A)

In the case of `CCN(CC)/[N+]([O-])=N/O.CCNCC` [DEA/NO, diethylamine NONOate], the “Intracellular cGMP content” value [1, 7] is reported as 250±15.5 % of control and 215±32.2 % of control and 318.5±31 % of control, the “Intracellular ATP” value [2, 8] is reported as 51.6±5.8 % of control and 50.8±20.9 % of control and the “Neurotoxicity to neurons in culture” value ([3]; 1 mM, in three out of six experiments) is reported as “did not cause any toxicity”. The “Synergism with NMDA in producing neurotoxicity” value [3] was “synergism”, the Neuronal survival [3, 9] was 48.7±14.6 % of control and the Neuronal survival [3, 10] was 18.2±5.3%.

In the case of `NCCN(CCN)/[N+]([O-])=N/O` [DETA/NO, diethylaminetriamine NONOate], the “Synergistic effect with kainate in producing neurotoxicity” value ([3]; DETA/NO 300 μM with kainate 20 μM) is reported as “synergistic effect”, the Neuronal survival [3, 9] is reported as 25.2±10.6 % of control and the Neuronal survival [3, 10] is reported as 27.9±8.0%.

In the case of `NCCCN(CCCN)/[N+]([O-])=N/O` [DPT/NO, dipropylenetriamine NONOate], the “Intracellular ATP” value [2, 8] is reported as 62.6±4.5 % of control and 64.9±13.7 % of control, the “Synergism with NMDA in producing neurotoxicity” value [3] is reported as “synergism” and the Neuronal survival [3, 9] is reported as 1.9±0.8 % of control. For the same molecule, the Neuronal survival [3, 10] was 6.5±5.3%.

For `[Cl-].[Mn+3].[O-]c1ccccc1C=NCCN=Cc1ccccc1[O-]` [EUK-8], the “Effect on protein tyrosine nitration” value [4] is given as “reduced protein tyrosine nitration” and the “Effect on survival of transgenic animals” value [4] is given as “prolonged survival”.

In the case of `COc1cccc(C=NCCN=Cc2cccc(OC)c2[O-])c1[O-].[Cl-].[Mn+3]` [EUK-134], the “Effect on protein tyrosine nitration” value [4] is listed as “reduced protein tyrosine nitration” and the “Effect on survival of transgenic animals” value [4] is listed as “prolonged survival”.

In the case of `O=C(O)c1ccc(C2=C3C=CC(=N3)C(c3ccc(C(=O)O)cc3)=c3ccc([nH]3)=C(c3ccc(C(=O)O)cc3)c3ccc([n-]3)C(c3ccc(C(=O)O)cc3)c3ccc2[n-]3)cc1.[Cl-].[Mn+3]` (centres unmarked) [MnTBAP, Mn (III) tetrakis (4-benzoic acid) porphyrin chloride], the “Effect on SIN-1 toxicity” value ([3]; MnTBAP 100 μM, SIN-1 1 mM) is reported as “completely protected”, the “Effect on neurotoxicity induced by SIN-1” value ([3]; MnTBAP (TBAP), SIN-1 1 mM) is reported as “completely blocks” and the “Effect on ONOO− (peroxynitrite) toxicity” value ([3]; MnTBAP, ONOO− 100 μM) is reported as “blocked; also recorded: fully protected”.

For `CN[C@H](CC(=O)O)C(=O)O` [NMDA], the “Toxicity to neurons, applied alone” value ([3]; 24 h exposure, NMDA 20 μM or DETA/NO 300 μM) was “does not produce toxicity”.

For `O=NOO` [ONOO^−, peroxynitrite], the “Intracellular cGMP content” value [1, 7] was 111±11.2 % of control and 97±14.4 % of control, the “Intracellular cGMP content” value ([1]; five minutes, agent alone: SIN-1 100 μM, ONOO− 100 μM or DEA/NO 10 μM, IBMX 100 μM, listed as peroxynitrite) was 95.6±4.3 % of control and the “Intracellular ATP” value ([2]; of control values, 1 hr ONOO− 100 μM alone) was 37±9.9%. For the same molecule, the “Intracellular ATP” value ([2]; of control values, 1 hr ONOO− 100 μM alone, listed as peroxynitrite) was 40.5±11%, the “ATP level after 5 min exposure” value ([2]; peroxynitrite 100 μM, 5 min) was 50 % of its original levels and the “Cell (neuronal) survival” value [3] was 52.4±0.4%. For the same molecule, the “Cell (neuronal) survival” value ([3]; listed as peroxynitrite) was 49±7.3%.

For `CC(C)(C)[N+]([O-])=Cc1ccccc1` [PBN, alpha-phenyl-N-tert butyl nitrone], the “Effect on neurotoxicity induced by NMDA plus DETA/NO” value (shortened to “Effect … by NMDA plus DETA/NO”) ([3]; 24 hr exposure) was “not demonstrably neuroprotective; also recorded: no demonstrable effect” and the “Effect … by NMDA plus DETA/NO” value ([3]; four hour exposure) was “complete neuroprotection; also recorded: block”.

For `N=c1c[n+](N2CCOCC2)[n-]o1` [SIN-1, 3-morpholinosydnonimine], the “Intracellular cGMP content” value [1, 7] was 192±10.7 % of control and 207.6±11.5 % of control and 220.5±39.4 % of control, the “Exposure time to maximal ATP depletion” value ([2]; SIN-1 1 mM) was 1 h and the “Intracellular ATP” value ([2]; of control values, 1 hr exposure to SIN-1 1 mM alone) was 43±15.6% and 43.3±18.7%. For the same molecule, the EC50 [5] was 345 ± 91 µM and the “Nitration of BSA” value [6] was “strong nitration”.

In the case of `CC1(C)CCCC(C)(C)N1[O]` [TEMPO, 2,2,6,6-tetramethyl-1-piperidinyl-1-oxyl], the “Effect … by NMDA plus DETA/NO” value ([3]; 24 hr exposure) is reported as “not demonstrably neuroprotective; also recorded: no demonstrable effect” and the “Effect … by NMDA plus DETA/NO” value ([3]; four hour exposure) is reported as “complete neuroprotection; also recorded: block”.

With SOD: bovine superoxide dismutase the “Intracellular cGMP content” value ([1]; DEA/NO 10 μM in the presence of SOD 100 U/ml) was 310.3±33.4 % of control, the “Intracellular cGMP content” value ([1]; ONOO− 100 μM in the presence of SOD 100 U/ml) was 131±6 % of control and the “Intracellular cGMP content” value ([1]; SIN-1 100 μM in the presence of SOD 100 U/ml) was 327.7±39.5 % of control. The “Effect on cGMP accumulation induced by SIN-1” value ([1]; SOD 100 U/ml, SIN-1 100 μM) was “effect similar to that of PQQ; also recorded: enhanced”, the “Effect on SIN-1 toxicity to neurons” value ([3]; SOD 100 U/ml co-applied with SIN-1 500 μM, no catalase) was “potentiated” and the “Effect on SIN-1 toxicity” value ([3]; SOD 100 U/ml together with catalase (CAT) 100 U/ml, SIN-1 1 mM, 24 hr) was “completely blocked; also recorded: fully prevented”. For the same molecule, the Neuronal survival ([3]; co-application of SOD 100 U/ml and SIN-1 500 μM) was 16.8±6.3 % of control and 11.6±1.2 % of control.
